Data reported in patent US20060128681A1, “Novel rho inhibitors” (priority 2002, published 2006).
Like-named read-outs stand apart in the source and are kept apart here.

What was measured:
[1] = target: T1, rho transcription termination factor (Escherichia coli, UniProt P0AG30); test: Rho poly(C)-dependent ATPase assay, inhibition by metal chelates and bicyclomycin; type: biochemical, E. coli; design: made in house; host or cells: E. coli strain AR120 with plasmid p39-ASE; conditions: (DL)DTT 0.1-0.3 mM alone or equimolar with metal chloride, in presence of MgCl2
Description: Rho poly(C)-dependent ATPase assay.
The reactions were analyzed as described above.

[2] = target: T1, rho transcription termination factor; conditions: for IC50: read-out: I50, rho poly(C)-dependent ATP hydrolysis; for rho inhibition at 4000 μM: 4000 μM metal
Description: Rho poly(C)-dependent ATPase assay. See, generally, Sharp et al., (1983) A kinetic mechanism for the poly(C)-dependent ATPase of the Escherichia coli transcription termination protein, rho, J. Biol. Chem. 258, 3482-3486. The ribonucleotide-stimulated ATPase activity of rho at 32° C. was assayed by the amount of ^32P-labeled inorganic phosphate hydrolyzed from ATP after separation on PEI-TLC plates (prerun with water and dried) using 0.75 M potassium phosphate (pH 3.5) as the mobile phase. Reactions were initiated by adding ATP (varying concentrations) and 0.5 μCi [γ-^32P] ATP to the solution containing 40 mM Tris-HCl (pH 7.9), 50 mM KCl, 100 nM or 250 nM poly(C), 100 or 250 nM rho (monomer) and MgCl2 (1 mM or 10 mM). The TLC plates were exposed to PhosphorImager plates (Fuji and Molecular Dynamics) (3 h), scanned on a Storm 860 PC PhosphorImager and analyzed using Molecular Dynamic's ImageQuant 5.0. The initial rates of the reactions were determined by plotting the amount of ATP hydrolyzed against time. Each reaction was performed in duplicate and the results averaged.
B. Divalent Metal Activation of Rho in the Presence of MgCl2. To provide additional information concerning the roles of divalent metals in rho activation, the poly(C)-dependent assays were repeated in the presence of 10 mM MgCl2 and varying concentrations (10, 20, 40, 80, 125, 160, 250, 320, 500, 640 μM) of the divalent metals.

[3] = target: T1, rho transcription termination factor; conditions: for Vmax(app) / % activity (Vmax or Vpeak) / % efficiency (Vmax/KM or Vpeak/KM) / Vpeak(app): Mg^2+-free; for Vmax(app) / Vpeak(app): from activation curves; for % activity (Vmax or Vpeak) / % efficiency (Vmax/KM or Vpeak/KM): relative to Mg^2+; for metal activation profile: absence of MgCl2, 1.9-4000 μM metal; for n (Hill): nonlinear regression of velocity curves; for effect on rho poly(C)-dependent ATP hydrolysis in the absence of MgCl2: (DL)DTT-free buffer; for peak velocity / total metal concentration at peak velocity: absence of MgCl2, FIG. 8
Description: Rho poly(C)-dependent ATPase assay. […] The ribonucleotide-stimulated ATPase activity of rho at 32° C. was assayed by the amount of ^32P-labeled inorganic phosphate hydrolyzed from ATP after separation on PEI-TLC plates (prerun with water and dried) using 0.75 M potassium phosphate (pH 3.5) as the mobile phase. Reactions were initiated by adding ATP (varying concentrations) and 0.5 μCi [γ-^32P] ATP to the solution containing 40 mM Tris-HCl (pH 7.9), 50 mM KCl, 100 nM or 250 nM poly(C), 100 or 250 nM rho (monomer) and MgCl2 (1 mM or 10 mM). The TLC plates were exposed to PhosphorImager plates (Fuji and Molecular Dynamics) (3 h), scanned on a Storm 860 PC PhosphorImager and analyzed using Molecular Dynamic's ImageQuant 5.0. The initial rates of the reactions were determined by plotting the amount of ATP hydrolyzed against time. Each reaction was performed in duplicate and the results averaged.
A. Divalent Metal Activation of Rho in the Absence of MgCl2. […] For each metal, wild-type rho was pretreated with 20 mM EDTA to deplete the protein of residual metals and removed the excess EDTA and the metal•EDTA complex by a spin column.

E. coli RecA = E. coli RecA (Escherichia coli, UniProt P0A7G6); test: RecA poly(dT)-dependent ATP hydrolysis; type: biochemical; conditions: bicyclomycin 0-400 μM; Zn-(L)DTT equimolar
Description: The validity of some of these new leads has been questioned, and attention is now focused on determining the inhibition pathway for these compounds and whether the inhibitors show enzyme specificity. McGovern et al., (2001) A common mechanism underlying promiscuous inhibitors from virtual and high-throughput screening, J. Med. Chem. 45, 1712-1722. Compounds that show nonspecific interaction have been defined as “promiscuous inhibitors.” The inhibitor specificity of Zn-(L)DTT complexes was tested. […] Next, the time dependency for chelate inhibition was examined because a well-behaved, reversible inhibitor is typically not affected by incubation time. McGovern et al., (2001). […] The effect of Zn-(L)DTT solutions on E. coli RecA poly (dT)-dependent ATP hydrolysis was determined.

[4] = target: T1, rho transcription termination factor; design: made in house; host or cells: E. coli strain AR120 with plasmid p39-ASE; conditions: poly(dC)-ribo(C)10 ATPase assay, literature (Magyar 1996); cited from earlier work
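For % activity (Vmax or Vpeak) in this document: Poly(C)-dependent ATP hydrolysis by wild-type rho with other divalent metals in place of magnesium, radiolabeled ATP at varied levels, TLC phosphorimaging, initial rates from hydrolyzed ATP versus time.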
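For % efficiency (Vmax/KM or Vpeak/KM) in this document: Poly(C)-dependent ATP hydrolysis by wild-type rho with other divalent metals in place of magnesium, radiolabeled ATP at varied levels, TLC phosphorimaging, initial rates from hydrolyzed ATP versus time.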
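For Vmax(app) in this document: Poly(C)-dependent ATP hydrolysis by wild-type rho with other divalent metals in place of magnesium, radiolabeled ATP at varied levels, TLC phosphorimaging, initial rates from hydrolyzed ATP versus time.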
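For metal activation profile in this document: Poly(C)-dependent ATP hydrolysis by wild-type rho with other divalent metals in place of magnesium, radiolabeled ATP at varied levels, TLC phosphorimaging, initial rates from hydrolyzed ATP versus time.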

T1 sequence (P0AG30 whole entry): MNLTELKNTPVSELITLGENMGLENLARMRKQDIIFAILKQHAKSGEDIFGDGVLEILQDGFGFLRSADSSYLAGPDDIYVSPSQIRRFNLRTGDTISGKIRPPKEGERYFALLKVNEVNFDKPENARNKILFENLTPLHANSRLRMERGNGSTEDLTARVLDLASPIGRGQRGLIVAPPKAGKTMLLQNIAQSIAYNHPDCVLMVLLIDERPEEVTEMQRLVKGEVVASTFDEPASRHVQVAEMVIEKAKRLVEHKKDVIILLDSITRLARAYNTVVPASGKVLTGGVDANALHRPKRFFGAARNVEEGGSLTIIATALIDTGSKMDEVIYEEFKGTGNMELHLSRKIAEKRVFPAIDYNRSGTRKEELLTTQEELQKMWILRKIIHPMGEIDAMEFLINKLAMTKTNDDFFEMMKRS
E. coli RecA, sequence (P0A7G6 2-353): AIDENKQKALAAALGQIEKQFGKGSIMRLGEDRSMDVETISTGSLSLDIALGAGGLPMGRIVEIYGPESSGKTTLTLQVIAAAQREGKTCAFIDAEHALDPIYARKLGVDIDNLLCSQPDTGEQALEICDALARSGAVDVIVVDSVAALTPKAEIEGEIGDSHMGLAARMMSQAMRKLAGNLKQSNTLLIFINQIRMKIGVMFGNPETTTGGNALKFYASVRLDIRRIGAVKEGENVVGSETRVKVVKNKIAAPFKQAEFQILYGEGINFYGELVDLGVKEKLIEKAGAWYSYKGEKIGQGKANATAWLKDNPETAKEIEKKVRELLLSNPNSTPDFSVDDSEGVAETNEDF

Structure (SMILES)	effect on ATP hydrolysis rate in the presence of MgCl2 ([2]; 10 mM MgCl2)	Vmax(app) [3]	% activity (Vmax or Vpeak) [3]	metal activation profile [3]	% efficiency (Vmax/KM or Vpeak/KM) [3]	n (Hill) [3]	further results
OC(CS)C(O)CS (racemic) [(DL)DTT, dithiothreitol]							effect on rho poly(C)-dependent ATP hydrolysis [1]: did not inactivate the enzyme
[Be+2].[Cl-].[Cl-] [Be^2+]	inhibited	0.21 mol/min/mg	2%	did not catalyze ATP hydrolysis			activity at 100 μM ([2]; 100 μM BeCl2, 10 mM MgCl2): almost complete loss of activity; IC50 ([2]; 10 mM MgCl2): 63 µM
[Ca+2] [Ca^2+]	negligible effects	3.13 mol/min/mg	25%	Michaelis-Menten kinetics	74%	1	
[Cd+2] [Cd^2+]	negligible effects		39%	peak velocities	20%	4.6	effect on rho poly(C)-dependent ATP hydrolysis in the absence of MgCl2 [3]: activated; Vpeak(app) [3]: 4.74 mol/min/mg; peak velocity [3]: 4.8 µmol/min/mg; total metal concentration at peak velocity [3]: 65 µM
[Co+2] [Co^2+]	negligible effects	7.65 mol/min/mg	62%	Michaelis-Menten kinetics	61%	1	
[Cu+2] [Cu^2+]	inhibited	1.54 mol/min/mg	13%	Michaelis-Menten kinetics	39%	1	loss of activity ([2]; 10 mM MgCl2): ~30%
[Hg+2] [Hg^2+]	inhibited	0.78 mol/min/mg	6%	Michaelis-Menten kinetics	29%	1	rho inhibition at 4000 μM ([2]; 10 mM MgCl2): ~50%
[Mg+2] [Mg^2+]		12.3 mol/min/mg	100%	Michaelis-Menten kinetics	100%	1	efficiency (Vmax/KM or Vpeak/KM) relative to Co^2+ [3]: 1.5 times
[Cl][Mn][Cl] [Mn^2+]			97%	peak velocities	89%	1	efficiency (Vmax/KM or Vpeak/KM) relative to Co^2+ [3]: 1.6 times; % of maximum activity at 4000 μM ([3]; 4000 μM total metal): 10%; effect on rho poly(C)-dependent ATP hydrolysis in the absence of MgCl2 [3]: activated; Vpeak(app) [3]: 11.9 mol/min/mg; peak velocity [3]: 11.9 µmol/min/mg; total metal concentration at peak velocity [3]: 250 µM
[Cl][Ni][Cl] [Ni^2+]	negligible effects	4.79 mol/min/mg	39%	sigmoidal activation pattern	29%	2.9	effect on rho poly(C)-dependent ATP hydrolysis in the absence of MgCl2 [3]: activated
[Sr+2] [Sr^2+]	negligible effects	0.17 mol/min/mg	1%	did not catalyze ATP hydrolysis		1	
[O]=[V+2] [VO^2+]	negligible effects	0.78 mol/min/mg	6%	Michaelis-Menten kinetics		1	
[Cl-].[Cl-].[Zn+2] [Zn^2+]	inhibited		81%	peak velocities	51%	5.5	rho inhibition at 4000 μM ([2]; 10 mM MgCl2): ~50%; change of I50 on 10-fold poly(C) ([2]; poly(C) concentration increased 10-fold): increased only slightly; IC50 ([2]; 1 mM MgCl2, estimated): 190 µM; IC50 ([2]; 10 mM MgCl2): 4000 µM; activity remaining at 190 μM total metal ([3]; 190 μM [Zn^2+]total): 50%; velocity at 1000 μM total metal ([3]; 1000 μM [Zn^2+]total): zero; effect on rho poly(C)-dependent ATP hydrolysis in the absence of MgCl2 [3]: activated; Vpeak(app) [3]: 9.98 mol/min/mg; peak velocity [3]: 9.4 µmol/min/mg; total metal concentration at peak velocity [3]: 125 µM; IC50 ([3]; read-out: I50, rho poly(C)-dependent ATP hydrolysis, 0 mM MgCl2, estimated): 190 µM
C=C1CCO[C@]2([C@@H](O)[C@@](C)(O)CO)NC(=O)[C@@]1(O)NC2=O [bicyclomycin, Bicyclomycin]							effect on RecA poly(dT)-dependent ATP hydrolysis (E. coli RecA): no loss in RecA ATPase activity; inhibition kinetics with respect to ribo(C)10 [4]: mixed inhibition pattern
